Results taken from patent US7935720B2, “Crystal of substituted phenylalkanoic acid ester and process for producing the same” (Asahi Kasei Pharma Corporation, priority 2006, dated 2011).

Tests used:
[1] = Solubility test in Japanese Pharmacopoeia disintegration test fluids (HPLC); type: physicochemical; settings: for Solubility to 1st fluid for disintegration test of Japanese Pharmacopoeia (pH 1.2) / Solubility to 2nd fluid for disintegration test of Japanese Pharmacopoeia (pH 6.8): shaken for 24 hours at 37° C.
Protocol: The type A crystals of compound 1 of the invention prepared according to Example 3, and the type B crystals of compound 1 of the invention prepared according to Example 4 were respectively weighed to 10 mg in a 10-mL centrifuge tube, 3 mL each of 1st fluid for disintegration test of Japanese Pharmacopoeia (pH 1.2) was added respectively, and the mixture solutions were shaken for 24 hours at 37° C. After the shaking, the solutions were filtered, 1 mL of each filtrate was exactly pipeted, and 1 mL of acetonitrile was exactly added to obtain a sample solution.
The sample solutions were analyzed by using HPLC technique with the following conditions and the concentration of the compound in the sample solution was determined by comparing it with that of a standard solution having an already known concentration under the following HPLC conditions, to determine the solubility.
The same test was performed with 2nd fluid for disintegration test of Japanese Pharmacopoeia (pH 6.8), to determine the solubility.
Detector: Ultraviolet absorption spectrometer (wavelength: 235 nm)
Mobile phase: 50 mmol/L sodium dihydrogen phosphate/acetonitrile (55:45)
Column: YMC-Pack Pro C18, internal diameter: 4.6 mm, length: 15 cm (YMC Corporation)
Column temperature: 40° C.

[2] = Measurement of water content after filtration; type: physicochemical; settings: wet crystals after filtration and dehydration; calculated from weight of wet crystals and weight after drying
Protocol: The respective water contents of the crystals obtained in Example 10 and Example 11 were calculated from the weight of the wet crystals and the weight of the crystals after drying.

[3] = system: footpad edema in rat adjuvant arthritis; assay: Prophylactic and therapeutic effect against rat adjuvant arthritis; type: in vivo; settings: oral, 0.1 to 50 mg/0.2 ml/kg, suspended in 0.5% methylcellulose; compared with the positive control group
Protocol: For the compounds of the invention, a suppressive effect against footpad edema in rat adjuvant arthritis, which is a disease model for chronic rheumatoid arthritis as being one of autoimmune diseases and also a chronic inflammatory disease, was investigated according to the method of International Patent Publication No. WO 03/70686. The test compound was suspended in purified water containing 0.5% methylcellulose, and was orally administered to test animals at a dose of 0.1 to 50 mg/0.2 ml/kg.

[4] = system: leukotriene production; settings: reported in Patent Document 1; cited from earlier work
[5] = system: prostaglandin production; settings: reported in Patent Document 1; cited from earlier work

Cn1ncc2cc(-c3cc(CCC(=O)O)cc(N)c3OC3Cc4ccccc4C3)ccc21 [Type A crystal, 3-[3-amino-4-(indan-2-yloxy)-5-(1-methyl-1H-indazol-5-yl)phenyl]propionic acid]
Solubility of type A crystal relative to type B crystal ([1]; 1st fluid (pH 1.2) and 2nd fluid (pH 6.8)): three-fold greater | Solubility to 1st fluid for disintegration test of Japanese Pharmacopoeia (pH 1.2) [1]: 0.03 mg/mL | Solubility to 2nd fluid for disintegration test of Japanese Pharmacopoeia (pH 6.8) [1]: 0.06 mg/mL | Water content [2]: 52.5% | Suppression of footpad edema in rat adjuvant arthritis [3]: suppressed footpad edema

Cn1ncc2cc(-c3cc(CCC(=O)O)cc(N)c3OC3Cc4ccccc4C3)ccc21 [Compound 1, 3-[3-amino-4-(indan-2-yloxy)-5-(1-methyl-1H-indazol-5-yl)phenyl]propionic acid]
Leukotriene production suppressing effect [4]: leukotriene production suppressing effect | Prostaglandin production suppressing effect [5]: prostaglandin production suppressing effect

Cn1ncc2cc(-c3cc(CCC(=O)O)cc(N)c3OC3Cc4ccccc4C3)ccc21 [Type B crystal, 3-[3-amino-4-(indan-2-yloxy)-5-(1-methyl-1H-indazol-5-yl)phenyl]propionic acid]
Solubility to 1st fluid for disintegration test of Japanese Pharmacopoeia (pH 1.2) [1]: 0.01 mg/mL | Solubility to 2nd fluid for disintegration test of Japanese Pharmacopoeia (pH 6.8) [1]: 0.02 mg/mL | Water content [2]: 39.3% | Suppression of footpad edema in rat adjuvant arthritis [3]: suppressed footpad edema
